Results taken from patent US11001562B2, “Near-infrared fluorescent nerve contrast agents and methods of use thereof” (Beth Israel Deaconess Medical Center, priority 2013, dated 2021).

Columns and labels:
[1] = tested on: pig sciatic nerve tissue cross sections; experiment: Ex vivo nerve-specific fluorophore screening on nerve tissue sections; details: 100 μM fluorophore, 20 min incubation, pig sciatic nerve sections
Procedure: Phase contrast image (top) and fluorescence image (bottom) of nerve tissue sections incubated with 100 μM of test fluorophores are shown. Nerve-specific fluorescence intensity was determined using staining of pig sciatic nerve cut in cross section. Nerve tissue sections were incubated in 30% FBS solutions without (negative control, autofluorescence only) and with each fluorophore. As a positive control, previously reported nerve-specific BMB was used. Shown are phase contrast image (top) and fluorescence image (bottom) of nerve tissue sections incubated with 100 μM of each fluorophore. The control autofluorescence images were taken with equivalent exposure time and normalization. Arrowheads indicate fluorescence signals in nerve bundles. Ad=adipose tissue. Scale bars=200 μm. The SBR of each nerve relative to the neighboring adipose tissue was quantified and labeled as—, SBR<1; +, SBR=1−2; and ++, SBR >2.
Sciatic nerves from female Yorkshire pigs were harvested, fixed in 2% paraformaldehyde (PFA), and flash frozen in optimal cutting temperature (OCT) compound using liquid nitrogen. Nerve tissues were cut in cross section using a cryostat at […] thickness onto positively charge glass slides. Tissue sections were washed once with phosphate buffered saline (PBS) for 2 min to remove residual OCT. The tissue was then fixed to the slide with 2% PFA for 15 min, followed by washing with PBS (3×5 min). A formulation was previously developed for intravenous (IV) administration and was used in the current study to incubate the fluorophores with the nerve tissue (25). All fluorophores were mixed from the 100 mM stock solution into the IV formulation at 100 µM and incubated with the washed nerve tissue sections at room temperature for 20 min. Additional IV formulation not containing fluorophore was mixed and used to wash each nerve section twice (5 min per wash) following incubation with the formulated fluorophore. The nerve section was then washed an additional 2 times with PBS (5 min per each), after which coverslips were mounted using Fluoromount-G (Southern Biotech, Birmingham, Ala.).
NIR fluorescence microscopy for ex vivo nerve tissue slides was performed on a Nikon Eclipse TE300 microscope system as previously described (12, 19, 25). The microscope was equipped with a 100 W mercury light source, NIR-compatible optics, and a NIR-compatible 10× Plan Fluor objective lens and a 100× Plan Apo oil immersion objective lens (Nikon, Melville, N.Y.). Images were acquired on an Orca-AG (Hamamatsu, Bridgewater, N.J.). Image acquisition and analysis was performed using IPLab software (Scanalytics, Fairfax, Va.). A custom filter set (Chroma Technology Corporation, Brattleboro, Vt.) composed of a 650±22 nm excitation filter, a 675 nm dichroic mirror, and an 710±25 nm emission filter were used to detect Oxazine derivatives and Rhodamine 800 signals in the nerve tissue slides. For BMB, a mercury light source was passed through a 360±25 nm BP excitation filter, a 400 nm LP beam splitter, and a 550±50 nm emission filter.

[2] = tested on: brachial plexus (BP) and sciatic nerves (SN) of CD-1 mice; experiment: Kinetics and dose-response of nerve targeting in small animals; assay type: in vivo, mouse
Procedure: 100 nmol (1.6 mg/kg) of Oxazine was injected intravenously into CD-1 mice, and SBR (BP/Mu) and SBR (SN/Mu) were measured at different time points (T=0, 1, 4, 6, 12, and 24 h). Arrowheads indicate fluorescence signals in nerve bundles. SG=salivary glands; Mu=muscle. Scale bars=1 cm. All NIR fluorescence images have identical exposure times (500 msec) and normalizations. B) Dose-response curve of SBR (mean±SEM) for BP and SN. 0, 50, 100, 200, and 400 nmol of Oxazine 4 were injected intravenously into CD-1 mice, and SBR (BP/Mu) and SBR (SN/Mu) were measured at 4 h post-injection. Arrowheads indicate fluorescence signals in nerve bundles. SG=salivary glands; Mu=muscle. Scale bars=1 cm. All NIR fluorescence images have identical exposure times (500 msec) and normalizations.
Initial in vivo screening occurred in rats based on our previous study of BMB (Supplementary Methods) (25). For kinetic and dose-response studies, 50-400 nmol (0.8-6.3 mg/kg) of Oxazine 4 was injected intravenously into mice and measurements taken over 24 h. Control images were acquired prior to injecting NIR fluorophores. The fluorescence signal in nervous tissues and signal-to-background ratio (SBR) compared to neighboring muscle (Mu) were obtained over the period of imaging. For the large animal study, the optimal dose found in mice (200-400 nmol per mouse) was used in pigs by scaling to body surface area (29, 30).
The fluorescence intensity (FI) and background (BG) intensity of a region of interest (ROI) over each nerve/tissue were calculated and quantified using custom FLARE^a software. The FI of the RLN, BP, and SN at the optimal dose and time point were quantified to measure tissue-specific targeting. Adjacent tissues such as trachea (Tr), thyroid (Th), tracheoesophageal groove (TEG), muscle (Mu), and adipose tissue (Ad) were used as background to calculate the SBR of RLN, BP, and SN in pigs. Statistical analysis was carried out using a one-way ANOVA followed by Tukey's multiple comparisons test. Results were presented as mean±S.D. and curve fitting was performed using Prism version 4.0a software (GraphPad, San Diego, Calif.).

With CC/N=c1/cc2oc3cc(NCC)c(C)cc3nc-2cc1C [Oxazine 4] as the compound, how does the “nerve-specific fluorescence signal in cross-sectioned nerve” value [1] read?
The value was “strong fluorescence signal throughout the cross-sectioned nerve”.

And the “time of highest SBR post-intravenous injection” value ([2]; 100 nmol (1.6 mg/kg) iv)?
The value was 4 h.

What about the “highest SBR (nerve/muscle)” value ([2]; 100 nmol (1.6 mg/kg) iv, 4 h post-injection, BP and SN) of the same compound?
Its value is “≈ 3.0”.

And the “SBR at 1 h post-injection” value ([2]; 100 nmol iv, 1 h)?
Its value is “low”.

And the “fluorescence signal in nervous tissues at 24 h post-injection” value ([2]; 100 nmol iv, 24 h)?
The value was “decayed at this time point to pre-injection levels”.

What about the “dose dependence of fluorescence signals in BP and SN” value ([2]; 50-400 nmol per mouse (0.8-6.3 mg/kg), 4 h post-injection) of the same compound?
The value was “proportional to the injected dose”.

And the optimal dose ([2]; iv, 4 h post-injection)?
Its optimal dose is 200 nmol.
